Activity calls are given as the source filed them. No cut-off for these calls is given here.
Assays:
[1] = system: Echinochloa crus-galli; test: Herbicidal activity against Echinochloa crus-galli (barnyard grass) assessed as damage of seedlings; assay type: functional
[2] = system: Scenedesmus acutus; test: Phytotoxic activity against Scenedesmus acutus assessed as zeta-carotene accumulation; assay type: functional, organism-based
[3] = system: Scenedesmus acutus; test: Phytotoxic activity against Scenedesmus acutus assessed as phytoene accumulation; assay type: functional, organism-based

Row | SMILES | ED90 [1] [gAi/ha] | also measured
1 | CC(Cl)/C=C/C(=O)N(Cc1ccc(C(F)(F)F)cc1)CC(C)C (stereo unspecified) | 31 | –
2 | CC(Cl)/C=C/C(=O)N(Cc1ccc(S(C)(=O)=O)cc1)CC(C)C (stereo unspecified) | >1000 | –
3 | CC(Cl)/C=C/C(=O)N(Cc1ccc(C#N)cc1)CC(C)C (stereo unspecified) | 16 | –
4 | COc1ccc(C(=O)c2cccc(C)c2)cc1C | – | Activity [2]: Active
5 | CC(Cl)/C=C/C(=O)N(Cc1ccc(Cl)cc1)CC(C)C (stereo unspecified) | 16 | –
6 | CNc1cnn(-c2cccc(C(F)(F)F)c2)c(=O)c1Cl | – | Activity [3]: Active

— ChEMBL document CHEMBL3044816, “Mode of Action of Herbicidal N-Benzyl-4-chloro-N-isobutyl-2-pentenamides” (J Pestic Sci, 2002)
